Reference: article PMC11062899, “De novo development of small cyclic peptides that are orally bioavailable” (Nature Chemical Biology, 2023)
Where “and” joins values, the source holds several entries; their conditions need not be identical. Equal values may be shown once. Read-outs that look alike come from different tables or passages of the source.

Tests used:
[1] = Passive artificial membrane permeability (PAMPA);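 on Permeability% Average: top well sample relative to theoretical equilibrium sample by TIC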
human α-thrombin = human α-thrombin (Homo sapiens, UniProt P00734); assay: Protease inhibition, Ki for human α-thrombin (fluorogenic substrate Z-Gly-Gly-Arg-AMC); format: biochemical; conditions: for Human alpha thrombin inhibition, slope normalized to DMSO: replicates R1-R3
Protocol: (§1) The inhibition constants (Ki) of cyclic peptides were calculated by measuring thrombin inhibition in the presence of different concentrations of the cyclic peptides. […] Human α-thrombin (Molecular Innovations) and rat α-thrombin (Molecular Innovations) were used at final concentrations of 2 nM and 3 nM, respectively, and fluorogenic substrate (Z-Gly-Gly-Arg-AMC, Bachem) was used at a concentration of 50 μM. Enzymatic activity was determined by measuring fluorescent gain on a Tecan Infinite M200 Pro microplate reader (excitation: 360 nm, emission: 465 nm) or a PHERAstar FSX microplate reader (excitation: 380 nm, emission: 440 nm) for 30 min at 25 °C with a fluorescent readout every 3 min. The two instruments were controlled with Tecan Infinite M200 Pro instrument software (iControl, version 1.12) and PHERAstar FSX software (version 5.70, edition 8), respectively. Protease inhibition was calculated by comparing the enzymatic activity to a control without cyclic peptide.
(§2) Half maximal inhibitory concentration (IC50) values were determined using a four-parameter logistic regression model in GraphPad Prism 9 to fit sigmoidal curves to the acquired data points according to equation (2) below.2 y=b+a−b/1+10^(logIC50−x)p where a and b represent the measured inhibition maximum and minimum, respectively; x is the logarithm of peptide concentration; y is the thrombin activity compared to a control without the cyclic peptide; and p is the Hill coefficient.
(§3) Ki values were calculated using the IC50 and the Cheng–Prusoff equation (equation (3)).3 Ki=IC50/1+S0/Km where Km is the Michaelis–Menten constant of the enzyme for the substrate used in the assay, and [S]0 is the initial substrate concentration.

rat α-thrombin = target: T1, rat α-thrombin (Rattus norvegicus, UniProt P18292); assay: Protease inhibition, Ki for rat α-thrombin (fluorogenic substrate Z-Gly-Gly-Arg-AMC); format: biochemical; conditions: for Rat alpha thrombin inhibition, slope normalized to DMSO: replicates R1-R3
T1 construct: rat α-thrombin (Molecular Innovations) were used at final concentrations of 2 nM and 3 nM; purchased Molecular Innovations
Protocol: as §1, §2, §3

[2] = peptide concentration 1.00E+02 uM
[3] = peptide concentration 1.19E-05 uM
[4] = peptide concentration 1.22E-02 uM
[5] = peptide concentration 1.25E+01 uM
[6] = peptide concentration 1.53E-03 uM
[7] = peptide concentration 1.56E+00 uM
[8] = peptide concentration 1.91E-04 uM
[9] = peptide concentration 1.95E-01 uM
[10] = peptide concentration 2.38E-05 uM
[11] = peptide concentration 2.44E-02 uM
[12] = peptide concentration 2.50E+01 uM
[13] = peptide concentration 3.05E-03 uM
[14] = peptide concentration 3.12E+00 uM
[15] = peptide concentration 3.81E-04 uM
[16] = peptide concentration 3.91E-01 uM
[17] = peptide concentration 4.77E-05 uM
[18] = peptide concentration 4.88E-02 uM
[19] = peptide concentration 5.00E+01 uM
[20] = peptide concentration 6.10E-03 uM
[21] = peptide concentration 6.25E+00 uM
[22] = peptide concentration 7.63E-04 uM
[23] = peptide concentration 7.81E-01 uM
[24] = peptide concentration 9.54E-05 uM
[25] = peptide concentration 9.77E-02 uM

SMILES: O=C1C[C@H]2CCCN2C(=O)[C@H](Cc2ccccc2)NC(=O)[C@@H](NC(=O)c2ccc(Cl)s2)CCCC=CCCCN1 [compound 42]
- PAMPA permeability: % permeability ([1]; 50 μM, 12–18 h, acceptor concentration relative to equilibrium): 70 ± 22%
- Permeability% (single replicates R1–R3) ([1]; 50 μM, 13 h (Fig. 5d)): 83.98% and 44.59% and 81.97%
- Permeability% Average ([1]; 50 μM, 13 h (Fig. 5d)): 70.2%
- Papp at 50 μM ([1]; PAMPA, pH 7.4): 11.2 ×10⁻⁶ cm/s
- Ki (human α-thrombin; average of R1-R3, read-out: Human alpha thrombin inhibition, Ki Average): 321 nM
- Human alpha thrombin inhibition, slope normalized to DMSO (human α-thrombin; [2]): 8.6 and 8.9 and 9.5
- Human alpha thrombin inhibition, slope normalized to DMSO (human α-thrombin; [3]): 104.7 and 99.7 and 99.1
- Human alpha thrombin inhibition, slope normalized to DMSO (human α-thrombin; [4]): 46.3 and 101.7 and 85.0
- Human alpha thrombin inhibition, slope normalized to DMSO (human α-thrombin; [5]): 5.3 and 13.8 and 11.9
- Human alpha thrombin inhibition, slope normalized to DMSO (human α-thrombin; [6]): 49.9 and 105.6 and 101.7
- Human alpha thrombin inhibition, slope normalized to DMSO (human α-thrombin; [7]): 36.6 and 35.2 and 35.3
- Human alpha thrombin inhibition, slope normalized to DMSO (human α-thrombin; [8]): 98.2 and 106.9 and 104.5
- Human alpha thrombin inhibition, slope normalized to DMSO (human α-thrombin; [9]): 49.0 and 78.5 and 77.7
- Human alpha thrombin inhibition, slope normalized to DMSO (human α-thrombin; [10]): 110.3 and 103.8 and 102.6
- Human alpha thrombin inhibition, slope normalized to DMSO (human α-thrombin; [11]): 87.9 and 84.7 and 102.8
- Human alpha thrombin inhibition, slope normalized to DMSO (human α-thrombin; [12]): 10.1 and 9.5 and 12.3
- Human alpha thrombin inhibition, slope normalized to DMSO (human α-thrombin; [13]): 53.7 and 99.4 and 62.7
- Human alpha thrombin inhibition, slope normalized to DMSO (human α-thrombin; [14]): 11.6 and 29.8 and 12.4
- Human alpha thrombin inhibition, slope normalized to DMSO (human α-thrombin; [15]): 68.4 and 103.9 and 101.2
- Human alpha thrombin inhibition, slope normalized to DMSO (human α-thrombin; [16]): 64.4 and 65.7 and 57.7
- Human alpha thrombin inhibition, slope normalized to DMSO (human α-thrombin; [17]): 106.6 and 102.8 and 103.1
- Human alpha thrombin inhibition, slope normalized to DMSO (human α-thrombin; [18]): 55.2 and 93.5 and 76.8
- Human alpha thrombin inhibition, slope normalized to DMSO (human α-thrombin; [19]): 11.6 (2×) and 7.0
- Human alpha thrombin inhibition, slope normalized to DMSO (human α-thrombin; [20]): 92.4 and 103.3 and 95.4
- Human alpha thrombin inhibition, slope normalized to DMSO (human α-thrombin; [21]): 8.5 and 19.8 and 17.9
- Human alpha thrombin inhibition, slope normalized to DMSO (human α-thrombin; [22]): 104.5 and 110.5 and 71.2
- Human alpha thrombin inhibition, slope normalized to DMSO (human α-thrombin; [23]): 53.0 and 40.3 and 48.0
- Human alpha thrombin inhibition, slope normalized to DMSO (human α-thrombin; [24]): 104.5 and 106.6 and 99.3
- Human alpha thrombin inhibition, slope normalized to DMSO (human α-thrombin; [25]): 84.9 and 80.9 and 75.3
- IC50 (human α-thrombin; single replicates R1-R3, read-out: Human alpha thrombin inhibition, IC50): 141 nM and 513 nM and 595 nM
- Ki (human α-thrombin; single replicates R1-R3, read-out: Human alpha thrombin inhibition, Ki): 108 nM (2×) and 396 nM (2×) and 459 nM (2×)
- Ki (rat α-thrombin; average of R1-R3, read-out: Rat alpha thrombin inhibition, Ki Average): 104 nM
- Rat alpha thrombin inhibition, slope normalized to DMSO (rat α-thrombin; [2]): 11.1 and 8.8 and 6.3
- Rat alpha thrombin inhibition, slope normalized to DMSO (rat α-thrombin; [3]): 97.9 and 89.1 and 104.7
- Rat alpha thrombin inhibition, slope normalized to DMSO (rat α-thrombin; [4]): 95.5 and 96.6 and 90.7
- Rat alpha thrombin inhibition, slope normalized to DMSO (rat α-thrombin; [5]): 7.6 and 6.9 and 7.3
- Rat alpha thrombin inhibition, slope normalized to DMSO (rat α-thrombin; [6]): 101.7 and 97.0 and 102.3
- Rat alpha thrombin inhibition, slope normalized to DMSO (rat α-thrombin; [7]): 15.7 and 15.6 and 13.6
- Rat alpha thrombin inhibition, slope normalized to DMSO (rat α-thrombin; [8]): 90.1 and 101.9 and 101.4
- Rat alpha thrombin inhibition, slope normalized to DMSO (rat α-thrombin; [9]): 54.3 and 44.0 and 44.2
- Rat alpha thrombin inhibition, slope normalized to DMSO (rat α-thrombin; [10]): 98.8 and 105.1 and 93.8
- Rat alpha thrombin inhibition, slope normalized to DMSO (rat α-thrombin; [11]): 96.7 and 81.8 and 91.8
- Rat alpha thrombin inhibition, slope normalized to DMSO (rat α-thrombin; [12]): 6.5 and 0.4 and 5.6
- Rat alpha thrombin inhibition, slope normalized to DMSO (rat α-thrombin; [13]): 104.2 and 96.1 and 93.1
- Rat alpha thrombin inhibition, slope normalized to DMSO (rat α-thrombin; [14]): 7.9 and 9.5 and 5.7
- Rat alpha thrombin inhibition, slope normalized to DMSO (rat α-thrombin; [15]): 106.7 and 100.9 and 91.0
- Rat alpha thrombin inhibition, slope normalized to DMSO (rat α-thrombin; [16]): 38.3 and 34.0 and 35.5
- Rat alpha thrombin inhibition, slope normalized to DMSO (rat α-thrombin; [17]): 98.1 and 100.4 and 100.7
- Rat alpha thrombin inhibition, slope normalized to DMSO (rat α-thrombin; [18]): 84.8 and 84.4 and 72.7
- Rat alpha thrombin inhibition, slope normalized to DMSO (rat α-thrombin; [19]): 0.8 and 7.3 and 2.5
- Rat alpha thrombin inhibition, slope normalized to DMSO (rat α-thrombin; [20]): 104.0 and 93.5 and 94.8
- Rat alpha thrombin inhibition, slope normalized to DMSO (rat α-thrombin; [21]): 7.5 and 8.8 and 7.9
- Rat alpha thrombin inhibition, slope normalized to DMSO (rat α-thrombin; [22]): 97.9 and 91.4 and 101.5
- Rat alpha thrombin inhibition, slope normalized to DMSO (rat α-thrombin; [23]): 26.2 and 23.7 and 23.1
- Rat alpha thrombin inhibition, slope normalized to DMSO (rat α-thrombin; [24]): 96.9 and 98.1 and 96.1
- Rat alpha thrombin inhibition, slope normalized to DMSO (rat α-thrombin; [25]): 69.5 and 66.8
- IC50 (rat α-thrombin; single replicates R1-R3, read-out: Rat alpha thrombin inhibition, IC50): 215 nM and 179 nM and 168 nM
- Ki (rat α-thrombin; single replicates R1-R3, read-out: Rat alpha thrombin inhibition, Ki): 119 nM (2×) and 98.9 nM (2×) and 92.9 nM (2×)
